Legend:
[1] = test system: anti-HA antibody; test: anti-HA antibody binding assay on MTP-bound peptides (fluorescence, SAPE detection)
[2] = test system: anti-HA antibody; test: HA competitive binding: free peptide in solution competes with […] on MTPs for the anti-HA antibody; conditions: for competitive activity against YPYDVPDYA peptide on MTPs for anti-HA antibody: free peptide with spacer GG in solution, FIG. 3

HKRK was tested. Which “assay signal (binding to anti-HA antibody) in screen of random 4-aa peptide library” value ([1]; 5,307 random 4-aa peptides on MTPs, 10 ug/mL biotinylated anti-HA monoclonal antibody, fluorescence at 532 nm) did it give?
Its value is “very low binding”.

What about the “competitive activity against YPYDVPDYA peptide on MTPs for anti-HA antibody” value [2] of the same substance?
Its value is “no competitive activity”.

Which “competitive activity against YPYDVPDYA peptide on MTPs for anti-HA antibody” value [2] does the source give for YHYY here?
The value was “competed well”.

And the “binding affinity to the anti-HA antibody (conclusion from competition and screen)” value ([2]; taken together from results of FIG. 3 and screen)?
The value was “high binding affinity”.

What does the source list for YPYDVPDYA?
recognition by / affinity to anti-HA antibody in HA peptide assay ([1]; […], QC control group vial #9, data not shown): specifically recognized by anti-HA antibody; competitive activity against YPYDVPDYA peptide on MTPs for anti-HA antibody [2]: reduced assay signal
